Assay results as given in ChEMBL document CHEMBL1124501, “Novel cytotoxic compounds from the ascidian Lissoclinum bistratum” (J Med Chem, 1989).
Values after ≈ are worked out from the molar mass of the structure shown.

What was measured:
Assay type in all cases: functional, cell-based
MRC5CV1 = assay: Cytotoxicity evaluated by incorporation of [methyl-3H]thymidine into human MRC5CV1, a control fibroblast cell line
T-24 [1] = assay: Cytotoxicity evaluated by incorporation of [methyl-3H]thymidine into human T24, a bladder carcinoma cell line.
T-24 [2] = assay: Cytotoxicity evaluated by incorporation of [methyl-3H]thymidine into human T24, a bladder carcinoma cell line
P388 = assay: Cytotoxicity in vitro against P388 cell line.; settings: Mus musculus

| SMILES | IC50 (MRC5CV1) [µg/mL] | IC50 (T-24 [1]) [µg/mL] | IC50 (T-24 [2]) [µg/mL] | IC50 (P388) [µg/mL] |
| --- | --- | --- | --- | --- |
| CC(C)[C@@H]1NC(=O)C2CSC(=N2)[C@H](Cc2ccccc2)NC(=O)C2CSC(=N2)[C@@H](C)NC(=O)[C@H]2N=C1O[C@@H]2C [BISTRATAMIDE A] | 50 (≈ 87.6 µM) | 0.07 (≈ 0.123 µM) | – | – |
| CC(C)[C@@H]1NC(=O)c2csc(n2)[C@H](Cc2ccccc2)NC(=O)C2CSC(=N2)[C@@H](C)NC(=O)[C@H]2N=C1O[C@@H]2C [BISTRATAMIDE B] | > 100 | – | 0.09 (≈ 0.158 µM) | – |
| C/C=C/C(=O)CC1CCC2(O)CC(C)C(CCCNC(=O)C(C)C3CNC(=O)CC(O1)C(C)CCCCC(CCC(C)/C=C(\C)C(C)O)O3)O2 (centres undefined) [BISTRATENE A] | 0.07 (≈ 0.0993 µM) | 0.07 (≈ 0.0993 µM) | – | – |
| C/C=C/C(=O)CC1CCC2(O)CC(C)C(CCCNC(=O)C(C)C3CNC(=O)CC(O1)C(C)CCCCC(CCC(C)/C=C(\C)C(C)OC(C)=O)O3)O2 (centres undefined) [BISTRATENE B] | 0.09 (≈ 0.12 µM) | 0.09 (≈ 0.12 µM) | – | – |
| CCC/C=C/C=C/C(=O)O[C@H]1/C(=C/C(=O)OC)C[C@H]2CC([C@@H](C)O)OC(=O)C[C@H](O)C[C@@H]3C[C@H](OC(C)=O)C(C)(C)[C@](O)(C[C@@H]4C/C(=C/C(=O)OC)C[C@H](/C=C/C(C)(C)[C@]1(O)O2)O4)O3 (some centres undefined) [BRYOSTATINS] | – | – | – | 0.89 (≈ 0.983 µM) |
